Measurements published in PMC4297448, “Detection of distinct glycosylation patterns on human γ-glutamyl transpeptidase 1 using antibody-lectin sandwich array (ALSA) technology” (BMC Biotechnology, 2014).

Target: T1, microvirin (MVN) (Microcystis aeruginosa, UniProt Q2MDE2)
T1 construct: full-length, N-terminal hexahistidine tag (pET-15b), E. coli BL21(DE3), Ni-NTA purified, biotinylated with NHS-SS-biotin
T1 sequence (Q2MDE2 1-108): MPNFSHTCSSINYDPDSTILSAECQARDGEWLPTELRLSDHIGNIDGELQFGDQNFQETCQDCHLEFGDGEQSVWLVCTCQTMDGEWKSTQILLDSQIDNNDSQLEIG
Test: CFG glycan microarray V5.[…], fluorescence
Assay type: binding
Details: biotinylated MVN 200 μg/mL, Alexa Fluor 488-avidin; glycan immobilised via spacer

| Compound | Fluorescence (%) ^a [%] |
| --- | --- |
| Manα1-2Manα1-2Manα1-6(Manα1-3)Manα-Sp9 [compound 215] | 78.1 |
| Manα1-2Manα1-6(Manα1-3)Manα1-6(Manα1-2Manα1-2Manα1-3)Manα-Sp9 [compound 316] | 48.8 |
| Manα1-2Manα1-2Manα1-3Manα-Sp9 [compound 208] | 63.8 |
| CC(=O)N[C@@H]1[C@@H](O)[C@H](O[C@@H]2O[C@H](CO)[C@@H](O[C@@H]3O[C@H](CO[C@H]4O[C@H](CO[C@H]5O[C@H](CO)[C@@H](O)[C@H](O)[C@@H]5O)[C@@H](O)[C@H](O[C@H]5O[C@H](CO)[C@@H](O)[C@H](O)[C@@H]5O[C@H]5O[C@H](CO)[C@@H](O)[C@H](O)[C@@H]5O)[C@@H]4O)[C@@H](O)[C@H](O[C@H]4O[C@H](CO)[C@@H](O)[C@H](O)[C@@H]4O[C@H]4O[C@H](CO)[C@@H](O)[C@H](O)[C@@H]4O)[C@@H]3O)[C@H](O)[C@H]2NC(C)=O)[C@@H](CO)O[C@H]1NC(=O)C[C@H](N)C(=O)O [compound 211, Manα1-6(Manα1-2Manα1-3)Manα1-6(Manα1-2Manα1-3)Manβ1-4GlcNAcβ1-4GlcNAcβ-Sp12] | 31.7 |
| Manα1-2Manα1-6(Manα1-2Manα1-3)Manα-Sp9 [compound 209] | 39.5 |
| CC(=O)N[C@@H]1[C@@H](O)[C@H](O[C@@H]2O[C@H](CO)[C@@H](O[C@@H]3O[C@H](CO[C@H]4O[C@H](CO[C@H]5O[C@H](CO)[C@@H](O)[C@H](O)[C@@H]5O[C@H]5O[C@H](CO)[C@@H](O)[C@H](O)[C@@H]5O)[C@@H](O)[C@H](O[C@H]5O[C@H](CO)[C@@H](O)[C@H](O)[C@@H]5O[C@H]5O[C@H](CO)[C@@H](O)[C@H](O)[C@@H]5O)[C@@H]4O)[C@@H](O)[C@H](O[C@H]4O[C@H](CO)[C@@H](O)[C@H](O)[C@@H]4O[C@H]4O[C@H](CO)[C@@H](O)[C@H](O)[C@@H]4O[C@H]4O[C@H](CO)[C@@H](O)[C@H](O)[C@@H]4O)[C@@H]3O)[C@H](O)[C@H]2NC(C)=O)[C@@H](CO)O[C@H]1NC(=O)C[C@H](N)C(=O)O [compound 213, Manα1-2Manα1-6(Manα1-2Manα1-3)Manα1-6(Manα1-2Manα1-2Manα1-3)Manβ1-4GlcNAcβ1-4GlcNAcβ-Sp12] | 19.8 |
| CC(=O)N[C@@H]1[C@@H](O)[C@H](O[C@@H]2O[C@H](CO)[C@@H](O[C@@H]3O[C@H](CO[C@H]4O[C@H](CO[C@H]5O[C@H](CO)[C@@H](O)[C@H](O)[C@@H]5O[C@H]5O[C@H](CO)[C@@H](O)[C@H](O)[C@@H]5O)[C@@H](O)[C@H](O[C@H]5O[C@H](CO)[C@@H](O)[C@H](O)[C@@H]5O)[C@@H]4O)[C@@H](O)[C@H](O[C@H]4O[C@H](CO)[C@@H](O)[C@H](O)[C@@H]4O[C@H]4O[C@H](CO)[C@@H](O)[C@H](O)[C@@H]4O[C@H]4O[C@H](CO)[C@@H](O)[C@H](O)[C@@H]4O)[C@@H]3O)[C@H](O)[C@H]2NC(C)=O)[C@@H](CO)O[C@H]1NC(=O)C[C@H](N)C(=O)O [compound 212, Manα1-2Manα1-6(Manα1-3)Manα1-6(Manα1-2Manα1-2Manα1-3)Manβ1-4GlcNAcβ1-4GlcNAcβ-Sp12] | 100.0 |
| Manα1-2Manα1-3Manα-Sp9 [compound 210] | 57.7 |
| Manα1-2Manα1-6(Manα1-2Manα1-3)Manα1-6(Manα1-2Manα1-2Manα1-3)Manα-Sp9 [compound 317] | 34.9 |
